25 molecules from US20080161289A1, “Fused Thiazole Derivatives Having Affinity for the Histamine H3 Receptor” (Glaxo Group Limited, priority 2005, published 2008) can be followed below.

The assay deals with T1, histamine H3 receptors (Homo sapiens, UniProt Q9Y5N1).
T1 construct: expressed in transfected cells; host or cells: CHO K1 cells carrying pSwitch, transfected with pGeneH3, induced with mifepristone; clone 3H3; membrane preparation
T1 sequence (Q9Y5N1 whole entry): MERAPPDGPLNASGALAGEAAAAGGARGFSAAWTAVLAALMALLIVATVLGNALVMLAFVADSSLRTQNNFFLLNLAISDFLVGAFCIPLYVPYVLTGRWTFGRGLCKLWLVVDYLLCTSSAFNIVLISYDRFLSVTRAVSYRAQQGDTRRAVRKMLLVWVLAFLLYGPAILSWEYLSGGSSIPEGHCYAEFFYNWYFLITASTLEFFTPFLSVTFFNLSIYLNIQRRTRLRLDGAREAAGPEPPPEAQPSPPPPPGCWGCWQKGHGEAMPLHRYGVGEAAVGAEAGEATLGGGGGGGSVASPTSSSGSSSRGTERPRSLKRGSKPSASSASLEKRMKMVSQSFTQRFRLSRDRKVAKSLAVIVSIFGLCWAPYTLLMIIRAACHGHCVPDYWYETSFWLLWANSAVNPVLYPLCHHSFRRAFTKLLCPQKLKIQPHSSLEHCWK
As to the kind of experiment: Histamine H3 functional antagonist assay ([35S]-GTPγS SPA on membranes from H3 cells). The following applies: hydrochloride salts tested; H3 functional antagonist assay using membrane prepared from cultured H3 cells; averages of a number of experiments; read-out: functional pKi (fpKi) (converted). Type of assay: biochemical. The source says:
A membrane preparation containing histamine H3 receptors may be prepared in accordance with the following procedures:
(i) Generation of Histamine H3 Cell Line
DNA encoding the human histamine H3 gene (Huvar, A. et al. (1999) Mol. Pharmacol. 55(6), 1101-1107) was cloned into a holding vector, pCDNA3.1 TOPO (InVitrogen) and its cDNA was isolated from this vector by restriction digestion of plasmid DNA with the enzymes BamHI and Not-1 and ligated into the inducible expression vector pGene (InVitrogen) digested with the same enzymes. The GeneSwitch™ system (a system where in transgene expression is switched off in the absence of an inducer and switched on in the presence of an inducer) was performed as described in U.S. Pat. Nos. 5,364,791; 5,874,534; and 5,935,934. Ligated DNA was transformed into competent DH5α E. coli host bacterial cells and plated onto Luria Broth (LB) agar containing Zeocin™ (an antibiotic which allows the selection of cells expressing the sh ble gene which is present on pGene and pSwitch) at 50 μg ml^−1. Colonies containing the re-ligated plasmid were identified by restriction analysis. DNA for transfection into mammalian cells was prepared from 250 ml cultures of the host bacterium containing the pGeneH3 plasmid and isolated using a DNA preparation kit (Qiagen Midi-Prep) as per manufacturers guidelines (Qiagen).
CHO K1 cells previously transfected with the pSwitch regulatory plasmid (InVitrogen) were seeded at 2×10e6 cells per T75 flask in Complete Medium, containing Hams F12 (GIBCOBRL, Life Technologies) medium supplemented with 10% v/v dialysed foetal bovine serum, L-glutamine, and hygromycin (100 μg ml^−1), 24 hours prior to use. Plasmid DNA was transfected into the cells using Lipofectamine plus according to the manufacturers guidelines (InVitrogen). 48 hours post transfection cells were placed into complete medium supplemented with 500 μg ml^−1 Zeocin™.
10-14 days post selection 10 nM Mifepristone (InVitrogen), was added to the culture medium to induce the expression of the receptor. 18 hours post induction cells were detached from the flask using ethylenediamine tetra-acetic acid (EDTA; 1:5000; InVitrogen), following several washes with phosphate buffered saline pH 7.4 and resuspended in Sorting Medium containing Minimum Essential Medium (MEM), without phenol red, and supplemented with Earles salts and 3% Foetal Clone II (Hyclone). Approximately 1×10e7 cells were examined for receptor expression by staining with a rabbit polyclonal antibody, 4a, raised against the N-terminal domain of the histamine H3 receptor, incubated on ice for 60 minutes, followed by two washes in sorting medium. Receptor bound antibody was detected by incubation of the cells for 60 minutes on ice with a goat anti rabbit antibody, conjugated with Alexa 488 fluorescence marker (Molecular Probes). Following two further washes with Sorting Medium, cells were filtered through a 50 μm Filcon™ (BD Biosciences) and then analysed on a FACS Vantage SE Flow Cytometer fitted with an Automatic Cell Deposition Unit. Control cells were non-induced cells treated in a similar manner. Positively stained cells were sorted as single cells into 96-well plates, containing Complete Medium containing 500 μg ml^−1 Zeocin™ and allowed to expand before reanalysis for receptor expression via antibody and ligand binding studies. One clone, 3H3, was selected for membrane preparation.
(ii) Membrane Preparation from Cultured Cells
All steps of the protocol are carried out at 4° C. and with pre-cooled reagents. The cell pellet is resuspended in 10 volumes of homogenisation buffer (50 mM N-2-hydroxyethylpiperazine-N′-2-ethanesulfonic acid (HEPES), 1 mM ethylenediamine tetra-acetic acid (EDTA), pH 7.4 with KOH, supplemented with 10e-6M leupeptin (acetyl-leucyl-leucyl-arginal; Sigma L2884), 25 μg/ml bacitracin (Sigma B0125), 1 mM phenylmethylsulfonyl fluoride (PMSF) and 2×10e-6M pepstain A (Sigma)). […]
`N#Cc1ccc(N2CCC(c3nc4c(s3)CCN(C3CCC3)CC4)C2)cn1` (racemic) [Example E35, (±)-5-[3-(6-Cyclobutyl-5,6,7,8-tetrahydro-4H-[1,3]thiazolo[4,5-d]azepin-2-yl)-1-pyrrolidinyl]-2-pyridinecarbonitrile]: the Ki was < 1.26 nM.

For `Cc1ccc(N2CCC(c3nc4c(s3)CCN(C3CCC3)CC4)C2)cn1` (racemic) [Example E38, (±)-6-Cyclobutyl-2-[1-(6-methyl-3-pyridinyl)-3-pyrrolidinyl]-5,6,7,8-tetrahydro-4H-[1,3]thiazolo[4,5-d]azepine], the Ki was < 1.26 nM.

Regarding `Cc1cccc(N2CCC(c3nc4c(s3)CCN(C3CCC3)CC4)C2)n1` (racemic) [Example E114, (±)-6-Cyclobutyl-2-[1-(6-methyl-2-pyridinyl)-3-pyrrolidinyl]-5,6,7,8-tetrahydro-4H-[1,3]thiazolo[4,5-d]azepine], the Ki is < 0.316 nM.

On to `N#Cc1ccc(N2CCC(c3nc4c(s3)CCN(C3CCC3)CC4)C2)cn1` (single isomer, unassigned; (+)) [Example E37, (+)-5-[3-(6-Cyclobutyl-5,6,7,8-tetrahydro-4H-[1,3]thiazolo[4,5-d]azepin-2-yl)-1-pyrrolidinyl]-2-pyridinecarbonitrile], for which the Ki was < 1.26 nM.

As to `N#Cc1ccc(N2CCC(c3nc4c(s3)CCN(C3CCC3)CC4)C2)cn1` (single isomer, unassigned; (-)) [Example E36, (−)-5-[3-(6-Cyclobutyl-5,6,7,8-tetrahydro-4H-[1,3]thiazolo[4,5-d]azepin-2-yl)-1-pyrrolidinyl]-2-pyridinecarbonitrile], the Ki was < 0.316 nM.

For `FC(F)(F)c1ccc(-c2nc3c(s2)CCN(C2CCC2)CC3)cc1` [Example E1, 6-Cyclobutyl-2-[4-(trifluoromethyl)phenyl]-5,6,7,8-tetrahydro-4H-[1,3]thiazolo[4,5-d]azepine], the Ki was < 31.6 nM.

On to `O=C1CCCN1c1ccc(-c2nc3c(s2)CCN(C2CCC2)CC3)cc1` [Example E3, 1-[4-(6-cyclobutyl-5,6,7,8-tetrahydro-4H-[1,3]thiazolo[4,5-d]azepin-2-yl)phenyl]-2-pyrrolidinone], for which the Ki is < 0.316 nM.

As to `c1cc(-c2nc3c(s2)CCN(C2CCC2)CC3)ccc1-c1csnn1` [Example E5, 6-Cyclobutyl-2-[4-(1,2,3-thiadiazol-4-yl)phenyl]-5,6,7,8-tetrahydro-4H-[1,3]thiazolo[4,5-d]azepine], the Ki was < 1.26 nM.

As to `Cc1ccc(C(=O)N2CCC(c3nc4c(s3)CCN(C3CCC3)CC4)CC2)cn1` [Example E8, 6-Cyclobutyl-2-{1-[(6-methyl-3-pyridinyl)carbonyl]-4-piperidinyl}-5,6,7,8-tetrahydro-4H-[1,3]thiazolo[4,5-d]azepine], the Ki is < 1.26 nM.

In the case of `O=C(c1ccc(C(F)(F)F)nc1)N1CCC(c2nc3c(s2)CCN(C2CCC2)CC3)CC1` [Example E10, 6-Cyclobutyl-2-(1-{[6-(trifluoromethyl)-3-pyridinyl]carbonyl}-4-piperidinyl)-5,6,7,8-tetrahydro-4H-[1,3]thiazolo[4,5-d]azepine], the Ki is < 31.6 nM.

In the case of `Cc1cccc(C(=O)N2CCC(c3nc4c(s3)CCN(C3CCC3)CC4)CC2)n1` [Example E11, 6-Cyclobutyl-2-{1-[(6-methyl-2-pyridinyl)carbonyl]-4-piperidinyl}-5,6,7,8-tetrahydro-4H-[1,3]thiazolo[4,5-d]azepine], the Ki is < 0.316 nM.

On to `Cc1cnc(C(=O)N2CCC(c3nc4c(s3)CCN(C3CCC3)CC4)CC2)cn1` [Example E12, 6-Cyclobutyl-2-{1-[(5-methyl-2-pyrazinyl)carbonyl]-4-piperidinyl}-5,6,7,8-tetrahydro-4H-[1,3]thiazolo[4,5-d]azepine], for which the Ki was < 1.26 nM.

With `Cc1cncc(C(=O)N2CCC(c3nc4c(s3)CCN(C3CCC3)CC4)CC2)c1` [Example E13, 6-Cyclobutyl-2-{1-[(5-methyl-3-pyridinyl)carbonyl]-4-piperidinyl}-5,6,7,8-tetrahydro-4H-[1,3]thiazolo[4,5-d]azepine], the Ki is < 0.316 nM.

As to `Cc1ccc(C(=O)N2CCC(c3nc4c(s3)CCN(C3CCC3)CC4)CC2)cc1` [Example E14, 6-Cyclobutyl-2-{1-[(4-methylphenyl)carbonyl]-4-piperidinyl}-5,6,7,8-tetrahydro-4H-[1,3]thiazolo[4,5-d]azepine], the Ki was < 1.26 nM.

In the case of `Cc1cc(C(=O)N2CCC(c3nc4c(s3)CCN(C3CCC3)CC4)CC2)no1` [Example E15, 6-Cyclobutyl-2-{1-[(5-methyl-3-isoxazolyl)carbonyl]-4-piperidinyl}-5,6,7,8-tetrahydro-4H-[1,3]thiazolo[4,5-d]azepine], the Ki was < 1.26 nM.

As for `O=C(c1csnn1)N1CCC(c2nc3c(s2)CCN(C2CCC2)CC3)CC1` [Example E16, 6-Cyclobutyl-2-[1-(1,2,3-thiadiazol-4-ylcarbonyl)-4-piperidinyl]-5,6,7,8-tetrahydro-4H-[1,3]thiazolo[4,5-d]azepine], the Ki is < 1.26 nM.

`Cn1ccc(C(=O)N2CCC(c3nc4c(s3)CCN(C3CCC3)CC4)CC2)n1` [Example E17, 6-Cyclobutyl-2-{1-[(1-methyl-1H-pyrazol-3-yl)carbonyl]-4-piperidinyl}-5,6,7,8-tetrahydro-4H-[1,3]thiazolo[4,5-d]azepine]: the Ki is < 1.26 nM.

Consider `Cc1cc(C(=O)N2CCC(c3nc4c(s3)CCN(C3CCC3)CC4)CC2)on1` [Example E18, 6-Cyclobutyl-2-{1-[(3-methyl-5-isoxazolyl)carbonyl]-4-piperidinyl}-5,6,7,8-tetrahydro-4H-[1,3]thiazolo[4,5-d]azepine], for which the Ki was < 1.26 nM.

`Cc1ccc(N2CCC(c3nc4c(s3)CCN(C3CCC3)CC4)CC2)cn1` [Example E19, 6-Cyclobutyl-2-[1-(6-methyl-3-pyridinyl)-4-piperidinyl]-5,6,7,8-tetrahydro-4H-[1,3]thiazolo[4,5-d]azepine]: the Ki was < 1.26 nM.

For `N#Cc1ccc(N2CCC(c3nc4c(s3)CCN(C3CCC3)CC4)CC2)cn1` [Example E20, 5-[4-(6-Cyclobutyl-5,6,7,8-tetrahydro-4H-[1,3]thiazolo[4,5-d]azepin-2-yl)-1-piperidinyl]-2-pyridinecarbonitrile], the Ki was < 0.316 nM.

Regarding `NC(=O)c1ccc(N2CCC(c3nc4c(s3)CCN(C3CCC3)CC4)CC2)cn1` [Example E22, 5-[4-(6-Cyclobutyl-5,6,7,8-tetrahydro-4H-[1,3]thiazolo[4,5-d]azepin-2-yl)-1-piperidinyl]-2-pyridinecarboxamide], the Ki was < 0.316 nM.

On to `CN(C)C(=O)c1ccc(N2CCC(c3nc4c(s3)CCN(C3CCC3)CC4)CC2)cn1` [Example E24, 5-[4-(6-Cyclobutyl-5,6,7,8-tetrahydro-4H-[1,3]thiazolo[4,5-d]azepin-2-yl)-1-piperidinyl]-N,N-dimethyl-2-pyridinecarboxamide], for which the Ki is < 1.26 nM.

Regarding `Cc1ncccc1C(=O)N1CCC(c2nc3c(s2)CCN(C2CCC2)CC3)CC1` [Example E25, 6-Cyclobutyl-2-{1-[(2-methyl-3-pyridinyl)carbonyl]-4-piperidinyl}-5,6,7,8-tetrahydro-4H-[1,3]thiazolo[4,5-d]azepine], the Ki is < 1.26 nM.

In the case of `CN1CCN(c2ccc(-c3nc4c(s3)CCN(C3CCC3)CC4)cc2)C1=O` [Example E26, 1-[4-(6-Cyclobutyl-5,6,7,8-tetrahydro-4H-[1,3]thiazolo[4,5-d]azepin-2-yl)phenyl]-3-methyl-2-imidazolidinone], the Ki was < 0.316 nM.

Consider `O=C1NCCN1c1ccc(-c2nc3c(s2)CCN(C2CCC2)CC3)cc1` [Example E27, 1-[4-(6-Cyclobutyl-5,6,7,8-tetrahydro-4H-[1,3]thiazolo[4,5-d]azepin-2-yl)phenyl]-2-imidazolidinone], for which the Ki was < 1.26 nM.
